Results from patent US12655116B2, “Substituted isophthalic acid diamides” (Bayer Aktiengesellschaft, priority 2020, dated 2026).

Assays:
[1] = test system: ABUTH; assay: Pre-emergence herbicidal action against ABUTH; type: in vivo, Abutilon theophrasti; settings: Abutilon theophrasti, 504 h; for pest or weed control at 80 g/ha: scored visually after 3 weeks vs untreated controls (100% = plants have died, 0% = like control plants); for pest or weed control at 20 g/ha: dosage 20 g/ha, scored visually after 3 weeks vs untreated controls, 100% = plants have died, 0% = like control plants, read-out: Pre-emergence action against ABUTH (herbicidal activity in percent)
Outline: (§1)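 Seeds sown in sandy loam, soil-covered; compound sprayed on soil surface pre-emergence. Application: WP/EC, 600–800 l/ha, 0.2% wetting agent. Readout: visual % damage at 3 weeks.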

[2] = test system: ALOMY; assay: Pre-emergence herbicidal action against ALOMY; type: in vivo, Alopecurus myosuroides; settings: Alopecurus myosuroides, 504 h, pre-emergence; for pest or weed control at 80 g/ha: scored visually after 3 weeks vs untreated controls (100% = plants have died, 0% = like control plants)
Outline: as §1

[3] = test system: AMARE; assay: Pre-emergence herbicidal action against AMARE; type: in vivo, Amaranthus retroflexus; settings: Amaranthus retroflexus, 504 h, scored visually after 3 weeks vs untreated controls, 100% = plants have died, 0% = like control plants
Outline: as §1

[4] = test system: AVEFA; assay: Pre-emergence herbicidal action against AVEFA; type: in vivo, Avena fatua; settings: Avena fatua, 504 h, pre-emergence
Outline: as §1

[5] = test system: ECHCG; assay: Pre-emergence herbicidal action against ECHCG; type: in vivo, Echinochloa crus-galli; settings: Echinochloa crus-galli, 504 h, 80 g/ha
Outline: as §1

[6] = test system: HORMU; assay: Pre-emergence herbicidal action against HORMU; type: in vivo, Hordeum murinum; settings: Hordeum murinum, 504 h; 80 g/ha, pre-emergence
Outline: as §1

[7] = test system: MATIN; assay: Pre-emergence herbicidal action against MATIN; type: in vivo, Matricaria inodora; settings: Tripleurospermum inodorum, 504 h; for pest or weed control at 20 g/ha: dosage 20 g/ha; for pest or weed control at 80 g/ha: dosage 80 g/ha
Outline: as §1

[8] = test system: PHBPU; assay: Pre-emergence herbicidal action against PHBPU; type: in vivo, Pharbitis purpurea; settings: Ipomoea purpurea, 504 h, dosage 80 g/ha
Outline: as §1

[9] = test system: SETVI; assay: Pre-emergence herbicidal action against SETVI; type: in vivo, Setaria viridis; settings: Setaria viridis, 504 h; for pest or weed control at 20 g/ha: dosage 20 g/ha; for pest or weed control at 80 g/ha: dosage 80 g/ha
Outline: as §1

[10] = test system: STEME; assay: Pre-emergence herbicidal action against STEME; type: in vivo, Stellaria media; settings: Stellaria media, 504 h, dosage 80 g/ha
Outline: as §1

[11] = test system: VERPE; assay: Pre-emergence herbicidal action against VERPE; type: in vivo, Veronica persica; settings: Veronica persica, 504 h; for pest or weed control at 20 g/ha: dosage 20 g/ha; for pest or weed control at 80 g/ha: dosage 80 g/ha
Outline: as §1

[12] = test system: VIOTR; assay: Pre-emergence herbicidal action against VIOTR; type: in vivo, Viola tricolor; settings: Viola tricolor, 504 h; for pest or weed control at 80 g/ha: dosage 80 g/ha
Outline: as §1

[13] = test system: DIGSA; assay: Pre-emergence herbicidal action against DIGSA; type: in vivo, Digitaria sanguinalis; settings: Digitaria sanguinalis, 504 h; for pest or weed control at 20 g/ha: dosage 20 g/ha; for pest or weed control at 80 g/ha: dosage 80 g/ha
Outline: as §1

[14] = test system: ABUTH; assay: Post-emergence herbicidal action against ABUTH; type: in vivo, Abutilon theophrasti; settings: Abutilon theophrasti, 504 h, visual assessment about 3 weeks after treatment vs untreated controls; for pest or weed control at 5 g/ha: dosage 5 g/ha; for pest or weed control at 20 g/ha: dosage 20 g/ha
Outline: (§2)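 Sandy loam, greenhouse; treatment 2–3 weeks after sowing, one-leaf stage. Aqueous suspension or emulsion from WP/EC sprayed on foliage (600–800 l/ha, 0.2% wetting agent). Readout: visual % action, ~3 weeks.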

[15] = test system: ALOMY; assay: Post-emergence herbicidal action against ALOMY; type: in vivo, Alopecurus myosuroides; settings: Alopecurus myosuroides, 504 h, visual assessment about 3 weeks after treatment vs untreated controls; for pest or weed control at 20 g/ha: dosage 20 g/ha
Outline: as §2

[16] = test system: AMARE; assay: Post-emergence herbicidal action against AMARE; type: in vivo, Amaranthus retroflexus; settings: Amaranthus retroflexus, 504 h, 20 g/ha, visual assessment about 3 weeks after treatment, 100% = plants have died, 0% = like control plants
Outline: as §2

[17] = test system: ECHCG; assay: Post-emergence herbicidal action against ECHCG; type: in vivo, Echinochloa crus-galli; settings: Echinochloa crus-galli, 504 h; for pest or weed control at 20 g/ha: dosage 20 g/ha
Outline: as §2

[18] = test system: LOLRI; assay: Post-emergence herbicidal action against LOLRI; type: in vivo, Lolium rigidum; settings: Lolium rigidum, 504 h, dosage 20 g/ha
Protocol: Seeds of monocotyledonous and dicotyledonous weed and crop plants are laid out in sandy loam soil in wood-fiber pots, covered with soil and cultivated in a greenhouse under good growth conditions. 2 to 3 weeks after sowing, the test plants are treated at the one-leaf stage. The compounds of the invention, formulated in the form of wettable powders (WP) or as emulsion concentrates (EC), are then sprayed onto the green parts of the plants in the form of an aqueous suspension or emulsion at a water application rate equivalent to 600 to 800 l/ha, with addition of 0.2% wetting agent. After the test plants have been left to stand in the greenhouse under optimal growth conditions for about 3 weeks, the action of the preparations is assessed visually in comparison to untreated controls (herbicidal action in percent (%): 100% activity=the plants have died, 0% activity=like control plants). […] The tables below illustrate, in an illustrative manner, the post-emergence herbicidal action of the compounds of the invention, the herbicidal activity being stated in percent.

[19] = test system: PHBPU; assay: Post-emergence herbicidal action against PHBPU; type: in vivo, Pharbitis purpurea; settings: Ipomoea purpurea, 504 h; for pest or weed control at 20 g/ha: dosage 20 g/ha
Outline: as §2

[20] = test system: SETVI; assay: Post-emergence herbicidal action against SETVI; type: in vivo, Setaria viridis; settings: Setaria viridis, 504 h; for pest or weed control at 5 g/ha: dosage 5 g/ha; for pest or weed control at 20 g/ha: dosage 20 g/ha
Outline: as §2

[21] = test system: STEME; assay: Post-emergence herbicidal action against STEME; type: in vivo, Stellaria media; settings: Stellaria media, 504 h, 20 g/ha
Outline: as §2

[22] = test system: VERPE; assay: Post-emergence herbicidal action against VERPE; type: in vivo, Veronica persica; settings: Veronica persica, 504 h
Outline: as §2

[23] = test system: VIOTR; assay: Post-emergence herbicidal action against VIOTR; type: in vivo, Viola tricolor; settings: Viola tricolor, 504 h
Outline: as §2

[24] = test system: DIGSA; assay: Post-emergence herbicidal action against DIGSA; type: in vivo, Digitaria sanguinalis; settings: Digitaria sanguinalis, 504 h, 20 g/ha
Outline: as §2

[25] = test system: LOLRI; assay: Pre-emergence herbicidal action against LOLRI; type: in vivo, Lolium rigidum; settings: Lolium rigidum, 504 h, 80 g/ha
Outline: as §1

[26] = test system: POLCO; assay: Pre-emergence herbicidal action against POLCO; type: in vivo, Polygonum convolvulus; settings: Fallopia convolvulus, 504 h, dosage 80 g/ha
Outline: as §1

[27] = test system: AVEFA; assay: Post-emergence herbicidal action against AVEFA; type: in vivo, Avena fatua; settings: Avena fatua, 504 h, visual assessment about 3 weeks after treatment, 100% = plants have died, 0% = like control plants
Outline: as §2

[28] = test system: MATIN; assay: Post-emergence herbicidal action against MATIN; type: in vivo, Matricaria inodora; settings: Tripleurospermum inodorum, 504 h
Outline: as §2

[29] = 20 g/ha, scored visually after 3 weeks, 100% = plants have died, 0% = like control plants

Cn1nnnc1NC(=O)c1ccc(C(F)(F)F)c(C(=O)NC2CC2)c1Br [Example 1-209]
pest or weed control at 80 g/ha [1]: 100%
pest or weed control at 20 g/ha [1]: 100%
pest or weed control at 80 g/ha [2]: 80%
pest or weed control at 20 g/ha [3]: 100%
pest or weed control at 80 g/ha [3]: 100%
pest or weed control at 80 g/ha [4]: 100%
pest or weed control at 80 g/ha [5]: 90%
pest or weed control at 80 g/ha [6]: 80%
pest or weed control at 20 g/ha [7]: 80%
pest or weed control at 80 g/ha [7]: 100%
pest or weed control at 80 g/ha [8]: 80%
pest or weed control at 20 g/ha [9]: 90%
pest or weed control at 80 g/ha [9]: 100%
pest or weed control at 80 g/ha [10]: 90%
pest or weed control at 20 g/ha [11]: 90%
pest or weed control at 80 g/ha [11]: 100%
pest or weed control at 80 g/ha [12]: 100%
pest or weed control at 20 g/ha [13]: 100%
pest or weed control at 80 g/ha [13]: 100%
pest or weed control at 5 g/ha [14]: 90%
pest or weed control at 20 g/ha [14]: 100%
pest or weed control at 20 g/ha [15]: 80%
pest or weed control at 20 g/ha [16]: 100%
pest or weed control at 20 g/ha [17]: 90%
pest or weed control at 20 g/ha [18]: 80%
pest or weed control at 20 g/ha [19]: 90%
pest or weed control at 5 g/ha [20]: 100%
pest or weed control at 20 g/ha [20]: 100%
pest or weed control at 20 g/ha [21]: 90%
pest or weed control at 20 g/ha [22]: 80%
pest or weed control at 5 g/ha ([23]; 5 g/ha): 100%
pest or weed control at 20 g/ha ([23]; 20 g/ha): 100%
pest or weed control at 20 g/ha [24]: 90%

CCCNC(=O)c1c(C(F)(F)F)ccc(C(=O)Nc2nnnn2CC)c1C [Example 2-32]
pest or weed control at 80 g/ha [1]: 100%
pest or weed control at 20 g/ha [1]: 100%
pest or weed control at 80 g/ha [2]: 100%
pest or weed control at 20 g/ha [2, 29]: 90%
pest or weed control at 20 g/ha [3]: 100%
pest or weed control at 80 g/ha [3]: 100%
pest or weed control at 80 g/ha [4]: 90%
pest or weed control at 20 g/ha [4, 29]: 90%
pest or weed control at 80 g/ha [5]: 100%
pest or weed control at 80 g/ha [25]: 90%
pest or weed control at 20 g/ha [7]: 100%
pest or weed control at 80 g/ha [7]: 100%
pest or weed control at 80 g/ha [8]: 90%
pest or weed control at 80 g/ha [26]: 90%
pest or weed control at 20 g/ha [9]: 100%
pest or weed control at 80 g/ha [9]: 100%
pest or weed control at 20 g/ha [11]: 90%
pest or weed control at 80 g/ha [11]: 100%
pest or weed control at 20 g/ha ([12]; dosage 20 g/ha): 100%
pest or weed control at 80 g/ha [12]: 100%
pest or weed control at 20 g/ha [13]: 100%
pest or weed control at 80 g/ha [13]: 100%
pest or weed control at 5 g/ha [14]: 90%
pest or weed control at 20 g/ha [14]: 90%
pest or weed control at 5 g/ha ([15]; dosage 5 g/ha): 90%
pest or weed control at 20 g/ha [15]: 100%
pest or weed control at 20 g/ha [16]: 100%
pest or weed control at 5 g/ha ([27]; 5 g/ha): 90%
pest or weed control at 20 g/ha ([27]; 20 g/ha): 100%
pest or weed control at 5 g/ha ([17]; dosage 5 g/ha): 80%
pest or weed control at 20 g/ha [17]: 90%
pest or weed control at 20 g/ha [18]: 80%
pest or weed control at 5 g/ha ([28]; dosage 5 g/ha): 90%
pest or weed control at 20 g/ha ([28]; dosage 20 g/ha): 90%
pest or weed control at 5 g/ha ([19]; dosage 5 g/ha): 80%
pest or weed control at 20 g/ha [19]: 90%
pest or weed control at 5 g/ha [20]: 80%
pest or weed control at 20 g/ha [20]: 100%
pest or weed control at 5 g/ha ([22]; 5 g/ha): 90%
pest or weed control at 20 g/ha [22]: 90%
pest or weed control at 20 g/ha [24]: 90%
